Assay results from ChEMBL document CHEMBL1201862, “PubChem BioAssay data set” (2004).
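1) Cells in 96-well plates. 2) Compound, 48 h, 5 concentrations. 3) Linear interpolation between surrounding doses. 4) Unreached endpoint = highest concentration. GI50 = concentration required for 50% inhibition of growth.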 Active and inactive are the calls of the source. Cut-off read from the data, not from the text of the source: active = GI50 up to about 1.1 µM and inactive = higher.

Experiments:
Assay in all cases: growth of human tumour cells (NCI), 48 h
DU-145 = system: DU-145
SK-MEL-28 = system: SK-MEL-28
SR = system: SR
HT-29 = system: HT-29
TK-10 = system: TK-10
PC-3 = system: PC-3
CAKI-1 = system: CAKI-1
OVCAR-4 = system: OVCAR-4
A498 = system: A498
UACC-257 = system: UACC-257
OVCAR-5 = system: OVCAR-5
NCI/ADR-RES = system: NCI/ADR-RES
SNB-19 = system: SNB-19
SK-MEL-5 = system: SK-MEL-5
HCT-116 = system: HCT-116
NCI-H23 = system: NCI-H23
HCT-15 = system: HCT-15
K562 = system: K562
UACC-62 = system: UACC-62
SW-620 = system: SW-620
OVCAR-8 = system: OVCAR-8
EKVX = system: EKVX
SNB-75 = system: SNB-75
LOX IMVI = system: LOX IMVI
SF-268 = system: SF-268
UO-31 = system: UO-31
Hs-578T = system: Hs-578T
NCI-H226 = system: NCI-H226
SN12C = system: SN12C
CCRF-CEM = system: CCRF-CEM
MDA-MB-231 = system: MDA-MB-231
SF-295 = system: SF-295
HCC 2998 = system: HCC 2998
MDA-MB-435 = system: MDA-MB-435
786-0 = system: 786-0
M14 = system: M14
MOLT-4 = system: MOLT-4
KM12 = system: KM12
HOP-92 = system: HOP-92
NCI-H460 = system: NCI-H460
SK-OV-3 = system: SK-OV-3
Malme-3M = system: Malme-3M
BT-549 = system: BT-549
ACHN = system: ACHN
A549 = system: A549
T47D = system: T47D
SK-MEL-2 = system: SK-MEL-2
COLO 205 = system: COLO 205
NCI-H522 = system: NCI-H522
MCF7 = system: MCF7
MDA-N = system: MDA-N
U-251 = system: U-251
HL-60 = system: HL-60
SF-539 = system: SF-539
IGROV-1 = system: IGROV-1

Measured: GI50

C=C1C(=O)OC2CC3(C)CCCC(C)C3=CC12 (stereo not given)
active: HL-60 0.469 µM
2.1 µM: HCT-15
inactive: DU-145 3.67 µM | SK-MEL-28 2.65 µM | SR 2.14 µM | HT-29 3.3 µM | TK-10 2.46 µM | PC-3 14.8 µM | CAKI-1 3.09 µM | OVCAR-4 4.03 µM | A498 3.72 µM | UACC-257 5.38 µM | OVCAR-5 11.2 µM | NCI/ADR-RES 17.6 µM | SNB-19 13.1 µM | SK-MEL-5 1.55 µM | HCT-116 3.91 µM | NCI-H23 6.04 µM | K562 2.35 µM | UACC-62 4.08 µM | SW-620 2.16 µM | OVCAR-8 12.8 µM | EKVX 5.3 µM | SNB-75 2.64 µM | LOX IMVI 1.57 µM | SF-268 6.92 µM | UO-31 3.18 µM | Hs-578T 2.91 µM | NCI-H226 13.2 µM | SN12C 3.3 µM | CCRF-CEM 1.21 µM | MDA-MB-231 12.1 µM | SF-295 13.1 µM | HCC 2998 3.79 µM | MDA-MB-435 2.94 µM | 786-0 2.79 µM | M14 3.56 µM | MOLT-4 2.56 µM | KM12 12.6 µM | HOP-92 2.64 µM | NCI-H460 3.03 µM | SK-OV-3 20.7 µM | Malme-3M 3.9 µM | BT-549 4.65 µM | ACHN 2.61 µM | A549 12.6 µM | T47D 2.88 µM | SK-MEL-2 10.4 µM | COLO 205 1.3 µM | NCI-H522 1.51 µM | MCF7 1.78 µM | MDA-N 3.18 µM | U-251 7 µM | SF-539 1.35 µM | IGROV-1 10.1 µM
